What all share (assay type): cell-based, human
Assay [1] deals with H2009 cells. Briefly: IncuCyte cell proliferation and caspase-3/7 apoptosis assay. The following applies: 10 μM cisplatin alone. The procedure:
(§1) Cell proliferation and apoptosis assay. Cell proliferation assays were performed using cell lines stably transfected with NucLight Red Lentivirus (Essen Bioscience) to accurately visualize and count the nucleus of a single cell. Cells were seeded on a 96-well plate and allowed to adhere for 24 hours. Test compounds were added at indicated concentrations. Caspase-3/7 Green Apoptosis Reagent (Essen Bioscience) was also added as a green fluorescent indicator of caspase-3/7-mediated apoptotic activity. To monitor cell proliferation and apoptosis over time, the plate was placed in the IncuCyte S3 Live-Cell Analysis System (Essen BioScience) and images were acquired every 2 hours. Data analysis was generated by the IncuCyte software using a red fluorescence mask to accurately count each cell nucleus and a green fluorescence mask to measure apoptosis over time.
(§2) To determine whether the inhibition in cell proliferation associated with ITGB4 knockdown was due to enhanced apoptosis or reduced cell division (cytostatic), the Essen Bioscience Caspase-3/7 Green apoptosis assay in live cells was conducted. The NucView™[…], a DNA intercalating dye was used to enable quantification of apoptosis over time. The dye is impermeable and non-toxic to cells but once the cell membrane is permeabilized by caspase-3/7, the dye enters the cell and gets activated due to change in pH leading to the generation of green fluorescence that is then detected in real time and quantified using the IncuCyte System (FIG. 4B).
(§3) To address this, H1993 and H2009 cells were treated with cisplatin for 3 days and the changes were analyzed by immunoblotting. […] Next, H1993 and H2009 cells were transiently transfected with ITGB4 siRNA and 24 hours post-transfection they were treated with 10 μM cisplatin and cell proliferation and caspase activity were determined. […] However, in response to cisplatin in ITGB4 knockdown cells, the fold change dipped to <1, alluding to a cytotoxic effect (FIG. 4C). […] However, cell death was not due to caspase activation but appeared to be due to cell bursting which is seen in anoikis (FIGS. 3K and 3L).

The test system of assay [2] is ITGB4, PXN, USP1, VDAC1, CD133 in patient-derived organoids. Kind of assay: Immunoblot of treated patient-derived organoids. The following applies: 48 hours, printed 2.5 mM and 5 mM.
The test system of assay [3] is H1993 cells. Briefly: IncuCyte cell proliferation and caspase-3/7 apoptosis assay. The procedure: as §1, §2
as §3, with “3L). […]” for “3L).”

Assay [4] has as its system patient-derived organoids (lung cancer). Kind of assay: Patient tumor tissue-derived organoid assay (area, caspase activity). The procedure:
Next, drug efficacy in patient tumor tissue-derived organoids was determined. Approximately 5000 cells/sample from 2 surgical samples were seeded in an ultra-low attachment plate and incubated at 37° C. […] In one of the patient-derived organoids, cisplatin treatment alone decreased spheroid area and increased apoptosis as measured by green intensity (FIG. 11D). […] Indeed, by 72 hours carfilzomib at a concentration of 2.5 μM induced 5-fold increase in caspase activity compared to cisplatin alone but there was not much change in the spheroid area (FIGS. 11E-11F). Thus, no additive effect was apparent in this patient sample. […] The efficacy of ITGB4 antibody in disrupting organoid growth and inducing apoptosis was also tested.

Assay [5] deals with ITGB4 expression in H2009 cells. Kind of assay: FACS analysis with ITGB4 antibody after cisplatin. The following applies: cisplatin for 4 days, FACS on day 5. The procedure:
Fluorescence-activated cell sorting (FACS) and analysis: Cells were trypsinized and resuspended (5 million) in PBS with 2% FBS. Cells were stained with ITGB4 antibody conjugated to Alexa Fluor® 488 (5 μl/1 million cells) (R&D Systems, Minneapolis, Minn., USA) and Propidium Iodide Ready Flow™ Reagent (1 drop/1 million cells) (Invitrogen) for 30 minutes at 4° C. The Analytical Cytometry Core Facility at City of Hope carried out and assisted all FACS sorting and analysis experiments. Gates were set to sort cell populations having low 10% and high 10% expression of ITGB4 using the FACSAria™ Fusion (BD Biosciences, San Jose, Calif., USA). Sorted cells were immediately cultured in 12-well plates and treated with cisplatin (1 μM) for 48 hours. Then, equal number of untreated and treated cells were collected and stained with same reagents as above. FACS analysis was performed to determine shifts in cell population using the Attune NxT Flow Cytometer (Invitrogen).
To test the predictions made by the model, H2009 cells were treated with cisplatin for 4 days. On day 5, they were subjected to FACS analysis using an ITGB4 antibody. […] In presence of stress, the cells either increased the expression of ITGB4 or the cells having high ITGB4 get selected (FIG. 13B). […] The cells were then counted, and an equal number of cells were stained with ITGB4 antibody and PI and analyzed by FACS sorting.
A general note: Flow cytometry measures light scatter and fluorescence of single cells or particles in a stream.

Assay [6] has as its system ITGB4, PXN, FAK, p27, phospho-Rb, γH2AX, cleaved PARP in H2009 cells. Briefly: Immunoblot. Particulars: cisplatin 10 μM, 3 days. Here is the method: (§4) West blotting: Cell lysates were prepared with 1×RIPA buffer (MilliporeSigma) and denatured in 1× reducing sample buffer at 95° C. for 5 minutes. Protein samples (15 μg) were run on 4-15% TGX gels (Bio-Rad, Hercules, Calif., USA) and transferred onto nitrocellulose membranes (Bio-Rad). Blots were blocked with 5% non-fat milk in TBS-T for 1 hour at room temperature and probed with primary antibody diluted in 2.5% BSA in TBS-T overnight at 4° C. After three washes with TBS-T, blots were incubated with HRP-conjugated secondary antibodies for 2 hours at room temperature. After three more washes, bands of interest were visualized via chemiluminescence using Western Bright ECL HRP substrate (Advansta, Menlo Park, Calif., USA) and imaged with the ChemiDoc MP imager (Bio-Rad).
(§5) Then a sublethal dose was used to determine the effect of these compounds on ITGB4 and PXN expression and caspase activity (FIG. 9I). […] These eleven compounds were further screened in the cisplatin-resistant cell line H2009. […] Further, carfilzomib was tested in another cisplatin-resistant cell line H1993.

The test system of assay [7] is ITGB4, PXN, FAK, MET, γH2AX, cleaved PARP in H1993 cells. Briefly: Immunoblot. The following applies: cisplatin 10 μM, 3 days. The procedure:
as §4, §5
(A western blot detects proteins with antibodies after separation by electrophoresis.)

Each structure is given as a SMILES string.

For `N.N.[Cl][Pt][Cl]` [Cisplatin, Cis-diamminedichloroplatinum(II)], the “apoptosis” value in assay [1] is “induced apoptosis in H2009 cell by 72 hours”. Besides, the “protein expression by immunoblot” value in assay [2] is “minimal effect”; in assay [6], “reduction in the expression of phosphorylated as well as total FAK and PXN”; in assay [7], “reduction in the expression of phosphorylated as well as total FAK and PXN”. Further, the “caspase activity” value is recorded as “did not induce caspase activity” in assay [3] (10 μM cisplatin alone) and “did not induce any caspase activity” in assay [4] (second patient (LCSC2) organoids, drug alone). The “fold change in cell count” value in assay [3] (ITGB4 knockdown or 10 μM cisplatin alone, cytostatic) is around 1 fold. Also, the “spheroid area” value in assay [4] (patient LCSC2) is given as “decreased the spheroid area”. The “organoid size” value in assay [4] (patient LCSC4, cisplatin 5 μM alone, carfilzomib 2.5 μM alone) is reported as “decreased the size of the organoid”. In addition, in assay [5], the “decrease in ITGB4 low-expressing cells compared to untreated” value is 15%.
